In PubChem BioAssay (NCI):
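The concentration for 50% growth inhibition is given as GI50. TGI denotes the concentration required for complete inhibition of growth.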

What was measured:
Assay in all cases: NCI anticancer screen, dose series, 384-well format
COLO 205 colon = test system: COLO 205 colon
EKVX NSCLC = test system: EKVX NSCLC
CCRF-CEM leukemia = test system: CCRF-CEM leukemia
SF-268 CNS = test system: SF-268 CNS
K-562 leukemia = test system: K-562 leukemia
A498 renal = test system: A498 renal
HCC-2998 colon = test system: HCC-2998 colon
NCI/ADR-RES ovarian = test system: NCI/ADR-RES ovarian
RPMI-8226 leukemia = test system: RPMI-8226 leukemia
SW-620 colon = test system: SW-620 colon
MALME-3M melanoma = test system: MALME-3M melanoma
U251 glioblastoma = test system: U251 glioblastoma
NCI-H226 lung = test system: NCI-H226 lung

| Structure (SMILES) | GI50 (COLO 205 colon) | TGI (COLO 205 colon) | GI50 (EKVX NSCLC) | TGI (EKVX NSCLC) | GI50 (CCRF-CEM leukemia) | TGI (CCRF-CEM leukemia) | GI50 (SF-268 CNS) | TGI (SF-268 CNS) | GI50 (K-562 leukemia) | TGI (K-562 leukemia) | GI50 (A498 renal) | TGI (A498 renal) | GI50 (HCC-2998 colon) | TGI (HCC-2998 colon) | GI50 (NCI/ADR-RES ovarian) | TGI (NCI/ADR-RES ovarian) | GI50 (RPMI-8226 leukemia) | TGI (RPMI-8226 leukemia) | GI50 (SW-620 colon) | TGI (SW-620 colon) | further results |
| --- | --- | --- | --- | --- | --- | --- | --- | --- | --- | --- | --- | --- | --- | --- | --- | --- | --- | --- | --- | --- | --- |
| O=C(Nc1cnn2ccc(N3CCC[C@@H]3c3cc(F)ccc3F)nc12)N1CC[C@H](O)C1 | > 100 µM | > 100 µM | > 100 µM | > 100 µM | > 100 µM | > 100 µM | > 100 µM | > 100 µM | > 100 µM | > 100 µM | > 100 µM | > 100 µM | > 100 µM | > 100 µM | > 100 µM | > 100 µM | > 100 µM | > 100 µM | > 100 µM | > 100 µM | GI50 (MALME-3M melanoma): > 100 µM; TGI (MALME-3M melanoma): > 100 µM; GI50 (U251 glioblastoma): > 100 µM; TGI (U251 glioblastoma): > 100 µM; GI50 (NCI-H226 lung): > 100 µM; TGI (NCI-H226 lung): > 100 µM |
| COc1ncc(-c2nc3c(n2C(C)C)[C@H](c2ccc(Cl)cc2)N(c2cc(Cl)cn(C)c2=O)C3=O)c(OC)n1 | 62.6 µM | > 100 µM | 58.7 µM | > 100 µM | 22.9 µM | 51.7 µM | > 50.5 µM | > 77.9 µM | 33.2 µM | > 100 µM | 9.44 µM | 52.9 µM | 65.7 µM | > 100 µM | 62.6 µM | > 100 µM | 20.7 µM | 42.7 µM | 53.5 µM | 97.8 µM | GI50 (MALME-3M melanoma): 12.7 µM; TGI (MALME-3M melanoma): 42.5 µM; GI50 (U251 glioblastoma): 65.4 µM; TGI (U251 glioblastoma): > 100 µM; GI50 (NCI-H226 lung): 13 µM; TGI (NCI-H226 lung): 30.2 µM |
